Consider 23 molecules from patent publication US11254663B2 (BRISTOL-MYERS SQUIBB COMPANY, priority 2019, dated 2022).

The target in one assay is FXR (Homo sapiens (Human), UniProt Q96RI1). Put plainly: transient human FXR/Gal4-luciferase reporter assay. The assay is classed as cell-based.
Chain of FXR (Q96RI1 262-486): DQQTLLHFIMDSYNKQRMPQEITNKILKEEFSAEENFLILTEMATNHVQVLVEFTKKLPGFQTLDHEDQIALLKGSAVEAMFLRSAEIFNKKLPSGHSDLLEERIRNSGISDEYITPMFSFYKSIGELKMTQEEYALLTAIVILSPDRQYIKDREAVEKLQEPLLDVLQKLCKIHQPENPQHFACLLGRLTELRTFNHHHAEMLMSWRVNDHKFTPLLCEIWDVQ
Conditions: not given
In a few lines: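 HEK293 cells stably carrying a 5×Gal4 response element–firefly luciferase reporter were transiently transfected overnight with a Gal4 DBD–human FXR LBD fusion plasmid. Compound was added in DMSO and cells were incubated overnight at 37 °C, 5% CO2. Activity was read as Steady-Glo luminescence.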
What is called EC50 is the concentration needed to bring the measured effect to its halfway point. `Cc1nc2ccc(-c3cccc(N(CC45CCC(c6noc(C7(C(F)(F)F)CC7)n6)(CC4)CC5)C(=O)C45CC(F)(C4)C5)c3)cc2s1` [Example 524, 3-fluoro-N-(3-(2-methylbenzo[d]thiazol-6-yl)phenyl)-N-((4-(5-(1-(trifluoromethyl)cyclopropyl)-1,2,4-oxadiazol-3-yl)bicyclo[2.2.2]octan-1-yl)methyl)bicyclo[1.1.1]pentane-1-carboxamide] gave a concentration giving a half-maximal response (EC50) of 119 nM.
Still for that read-out and setting: as for `Cc1nc2ccc(-c3cccc(N(CC45CCC(c6noc(C(F)F)n6)(CC4)CC5)C(=O)C45CC(F)(C4)C5)c3)cc2s1` [Example 462, N-((4-(5-(difluoromethyl)-1,2,4-oxadiazol-3-yl)bicyclo[2.2.2]octan-1-yl)methyl)-3-fluoro-N-(3-(2-methylbenzo[d]thiazol-6-yl)phenyl)bicyclo[1.1.1]pentane-1-carboxamide], the figure is 107 nM.
Take `Cc1nc2ccc(-c3cccc(N(CC45CCC(c6nnc(C7CC7)o6)(CC4)CC5)C(=O)C4CC(C(F)F)C4)c3)cc2s1` (centres unmarked) [Example 562, N-((4-(5-cyclopropyl-1,3,4-oxadiazol-2-yl)bicyclo[2.2.2]octan-1-yl)methyl)-3-(difluoromethyl)-N-(3-(2-methylbenzo[d]thiazol-6-yl)phenyl)cyclobutane-1-carboxamide]: the midpoint of the response, the EC50, lay at 318 nM. This EC50 lies about 3-fold higher than the previous one.
In turn, `CCc1ccc(-c2cccc(N(CC34CCC(c5ccc(C(F)(F)F)cn5)(CC3)CC4)C(=O)C34CC(F)(C3)C4)c2)cc1` [Example 497, N-(4′-ethyl-[1,1′-biphenyl]-3-yl)-3-fluoro-N-((4-(5-(trifluoromethyl)pyridin-2-yl)bicyclo[2.2.2]octan-1-yl)methyl)bicyclo[1.1.1]pentane-1-carboxamide] showed a concentration for a half-maximal effect (EC50) of 989 nM.
For the molecule `O=C(N(CC12CCC(c3ccc(C(F)(F)F)cn3)(CC1)CC2)c1cccc(-c2cnc(C3CC3)nc2)c1)C12CC(F)(C1)C2` [Example 490, N-(3-(2-cyclopropylpyrimidin-5-yl)phenyl)-3-fluoro-N-((4-(5-(trifluoromethyl)pyridin-2-yl)bicyclo[2.2.2]octan-1-yl)methyl)bicyclo[1.1.1]pentane-1-carboxamide], a half-maximal effect (EC50) was put at 334 nM. Against the preceding molecule, the EC50 is about 3-fold lower.

The assay is the same for the next values; noted with them: Gal4-hFXR fusion construct, HEK293 reporter cells; response relative to 8 μM GW-4064.
In turn, `CCOc1ncc(-c2cccc(N(CC34CCC(c5cnc(C(F)(F)F)nc5)(CC3)OC4)C(=O)C34CC(F)(C3)C4)c2)cn1` [Example 418, N-(3-(2-ethoxypyrimidin-5-yl)phenyl)-3-fluoro-N-((1-(2-(trifluoromethyl)pyrimidin-5-yl)-2-oxabicyclo[2.2.2]octan-4-yl)methyl)bicyclo[1.1.1]pentane-1-carboxamide] yielded an EC50 of 2040 nM.
Still for that read-out and setting: as for `CCc1ccc(-c2cccc(N(CC34CCC(c5nc(C6CC6)no5)(CC3)CC4)C(=O)C34CC(F)(C3)C4)c2)cc1` [Example 285, N-((4-(3-cyclopropyl-1,2,4-oxadiazol-5-yl)bicyclo[2.2.2]octan-1-yl)methyl)-N-(4′-ethyl-[1,1′-biphenyl]-3-yl)-3-fluorobicyclo[1.1.1]pentane-1-carboxamide], the figure is 225 nM.
Same read-out and setting: next, `CC(C)(C#N)Oc1ccc(-c2ccnc(N(CC34CCC(c5ccc(C(C)(F)F)cn5)(CC3)CC4)C(=O)OC(C)(C)C(F)(F)F)c2)cc1` [Example 606, 1,1,1-trifluoro-2-methylpropan-2-yl (4-(4-((2-cyanopropan-2-yl)oxy)phenyl)pyridin-2-yl)((4-(5-(1,1-difluoroethyl)pyridin-2-yl)bicyclo[2.2.2]octan-1-yl)methyl)carbamate]: 95 nM.
Same read-out and setting: next, `Cc1nc2ccc(-c3cccc(N(CC45CCC(c6ccc(C#N)cc6)(CC4)OC5)C(=O)C45CC(F)(C4)C5)c3)cc2s1` [Example 568, N-((1-(4-Cyanophenyl)-2-oxabicyclo[2.2.2]octan-4-yl)methyl)-3-fluoro-N-(3-(2-methylbenzo[d]thiazol-6-yl)phenyl)bicyclo[1.1.1]pentane-1-carboxamide]: 2440 nM; `CCOc1ncc(-c2ccnc(N(CC34CCC(c5noc(C(C)(C)C)n5)(CC3)CC4)C(=O)C34CC(F)(C3)C4)c2)cn1` [Example 531, N-((4-(5-(tert-butyl)-1,2,4-oxadiazol-3-yl)bicyclo[2.2.2]octan-1-yl)methyl)-N-(4-(2-ethoxypyrimidin-5-yl)pyridin-2-yl)-3-fluorobicyclo[1.1.1]pentane-1-carboxamide]: 159 nM; `CCc1cnc(-c2cccc(N(CC34CCC(c5nc(C(C)C)no5)(CC3)CC4)C(=O)C34CC(F)(C3)C4)c2)nc1` [Example 394, N-(3-(5-ethylpyrimidin-2-yl)phenyl)-3-fluoro-N-((4-(3-isopropyl-1,2,4-oxadiazol-5-yl)bicyclo[2.2.2]octan-1-yl)methyl)bicyclo[1.1.1]pentane-1-carboxamide]: 77 nM.
Consider `CC(C)(O)c1ccc(-c2cccc(N(CC34CCC(c5noc(C(C)(C)F)n5)(CC3)CC4)C(=O)[C@H]3C[C@](O)(C(F)(F)F)C3)n2)cc1` [Example 595, (cis)-N-((4-(5-(2-fluoropropan-2-yl)-1,2,4-oxadiazol-3-yl)bicyclo[2.2.2]octan-1-yl)methyl)-3-hydroxy-N-(6-(4-(2-hydroxypropan-2-yl)phenyl)pyridin-2-yl)-3-(trifluoromethyl)cyclobutane-1-carboxamide], for which the EC50 came to 64 nM.
For the molecule `O=C(N(CC12CCC(c3nc(C4CC4)no3)(CC1)CC2)c1cccc(-c2cnc3cc(Cl)cnn23)c1)C12CC(F)(C1)C2` [Example 329, N-(3-(7-chloroimidazo[1,2-b]pyridazin-3-yl)phenyl)-N-((4-(3-cyclopropyl-1,2,4-oxadiazol-5-yl)bicyclo[2.2.2]octan-1-yl)methyl)-3-fluorobicyclo[1.1.1]pentane-1-carboxamide], it took 222 nM to reach a half-maximal effect (EC50).
For the molecule `O=C(N(CC12CCC(c3nc(C4CC4)no3)(CC1)CC2)c1cccc(-c2cnc(C3CC3)nc2)c1)C12CC(F)(C1)C2` [Example 271, N-((4-(3-cyclopropyl-1,2,4-oxadiazol-5-yl)bicyclo[2.2.2]octan-1-yl)methyl)-N-(3-(2-cyclopropylpyrimidin-5-yl)phenyl)-3-fluorobicyclo[1.1.1]pentane-1-carboxamide], the concentration for a half-maximal effect (EC50) worked out at 23 nM.
For the molecule `CC(C)OC(=O)NC12CCC(CN(C(=O)C3CC(O)(C(F)(F)F)C3)c3cccc(-c4ccc(C(C)(C)O)cc4)c3)(CC1)CC2` (stereo not drawn) [Example 602, Isopropyl (4-(((cis)-3-hydroxy-N-(4′-(2-hydroxypropan-2-yl)-[1,1′-biphenyl]-3-yl)-3-(trifluoromethyl)cyclobutane-1-carboxamido)methyl)bicyclo[2.2.2]octan-1-yl)carbamate], it took 142 nM to reach a half-maximal effect (EC50).
On the same count and under the same terms, as for `CCOc1ncc(-c2cncc(N(CC34CCC(c5nc(C6CC6)no5)(CC3)CC4)C(=O)C34CC(F)(C3)C4)c2)cn1` [Example 423, N-((4-(3-cyclopropyl-1,2,4-oxadiazol-5-yl)bicyclo[2.2.2]octan-1-yl)methyl)-N-(5-(2-ethoxypyrimidin-5-yl)pyridin-3-yl)-3-fluorobicyclo[1.1.1]pentane-1-carboxamide], the figure is 238 nM; as for `COc1cc(-c2cccc(N(CC34CCC(c5nnc(C)s5)(CC3)CC4)C(=O)C3CCC(F)(F)C3)c2)ccn1` (centres unmarked) [Example 235, 3,3-difluoro-N-(3-(2-methoxypyridin-4-yl)phenyl)-N-((4-(5-methyl-1,3,4-thiadiazol-2-yl)bicyclo[2.2.2]octan-1-yl)methyl)cyclopentane-1-carboxamide], 895 nM.
Same read-out and setting: next, `CC(C)(F)c1nc(C23CCC(CN(c4cccc(C5=CC6(C5)CC(C(C)(C)O)C6)c4)C(=O)[C@H]4C[C@](O)(C(F)(F)F)C4)(CC2)CC3)no1` (stereo partly drawn) [Example 590, (cis)-N-((4-(5-(2-fluoropropan-2-yl)-1,2,4-oxadiazol-3-yl)bicyclo[2.2.2]octan-1-yl)methyl)-3-hydroxy-N-(3-(6-(2-hydroxypropan-2-yl)spiro[3.3]hept-1-en-2-yl)phenyl)-3-(trifluoromethyl)cyclobutane-1-carboxamide]: 11 nM; `CC(C)c1noc(C23CCC(CN(C(=O)C45CC(F)(C4)C5)c4cccc(-c5ccc(OC(F)F)cc5)c4)(CC2)CC3)n1` [Example 387, N-(4′-(difluoromethoxy)-[1,1′-biphenyl]-3-yl)-3-fluoro-N-((4-(3-isopropyl-1,2,4-oxadiazol-5-yl)bicyclo[2.2.2]octan-1-yl)methyl)bicyclo[1.1.1]pentane-1-carboxamide]: 47 nM.
As to `CN1CCN(c2cccc(N(CC34CCC(c5nc(C6CC6)no5)(CC3)CC4)C(=O)C34CC(F)(C3)C4)c2)CC1` [Example 416, N-((4-(3-cyclopropyl-1,2,4-oxadiazol-5-yl)bicyclo[2.2.2]octan-1-yl)methyl)-3-fluoro-N-(3-(4-methylpiperazin-1-yl)phenyl)bicyclo[1.1.1]pentane-1-carboxamide], it took 1060 nM to reach a half-maximal effect (EC50).
Still for that read-out and setting: next, `CC(C)(F)c1nc(C23CCC(CN(C(=O)OC4CCC(F)(F)CC4)c4cc(-c5ccc(OC(F)F)cc5)c(F)cn4)(CC2)CC3)no1` [Example 631, 4,4-difluorocyclohexyl (4-(4-(difluoromethoxy)phenyl)-5-fluoropyridin-2-yl) ((4-(5-(2-fluoropropan-2-yl)-1,2,4-oxadiazol-3-yl)bicyclo[2.2.2]octan-1-yl)methyl) carbamate]: 117 nM; `CCOc1ncc(-c2cccc(N(CC34CCC(c5nc(C(C)(C)C)no5)(CC3)CO4)C(=O)C34CC(F)(C3)C4)c2)cn1` [Example 553, N-((4-(3-(tert-butyl)-1,2,4-oxadiazol-5-yl)-2-oxabicyclo[2.2.2]octan-1-yl)methyl)-N-(3-(2-ethoxypyrimidin-5-yl)phenyl)-3-fluorobicyclo[1.1.1]pentane-1-carboxamide]: 1590 nM; `O=C(N(CC12CCC(c3nc(C4CC4)no3)(CC1)CC2)c1cccc(-c2ccc(NS(=O)(=O)C3CC3)cc2)c1)C12CC(F)(C1)C2` [Example 269, N-(4′-(cyclopropanesulfonamido)-[1,1′-biphenyl]-3-yl)-N-((4-(3-cyclopropyl-1,2,4-oxadiazol-5-yl)bicyclo[2.2.2]octan-1-yl)methyl)-3-fluorobicyclo[1.1.1]pentane-1-carboxamide]: 142 nM.
